Data: PubChem BioAssay (NCI)
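Here, GI50 denotes the concentration required for 50% inhibition of growth. At the TGI there is no net growth.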

Experiments:
Test in all cases: NCI-60 cell line screen, 384-well format
786-0 renal = system: 786-0 renal
A498 renal = system: A498 renal
A549 NSCLC = system: A549 NSCLC
ACHN renal = system: ACHN renal
BT-549 breast = system: BT-549 breast
CAKI-1 renal = system: CAKI-1 renal
CCRF-CEM leukemia = system: CCRF-CEM leukemia
COLO 205 colon = system: COLO 205 colon
DU-145 prostate = system: DU-145 prostate
EKVX NSCLC = system: EKVX NSCLC
HCC-2998 colon = system: HCC-2998 colon
HCT-116 colon = system: HCT-116 colon
HCT-15 colon = system: HCT-15 colon
HL-60(TB) leukemia = system: HL-60(TB) leukemia
HOP-62 NSCLC = system: HOP-62 NSCLC
HOP-92 NSCLC = system: HOP-92 NSCLC
HS 578T breast = system: HS 578T breast
HT29 colon = system: HT29 colon
IGROV1 ovarian = system: IGROV1 ovarian
K-562 leukemia = system: K-562 leukemia
KM12 colon = system: KM12 colon
LOX IMVI melanoma = system: LOX IMVI melanoma
M14 melanoma = system: M14 melanoma
MALME-3M melanoma = system: MALME-3M melanoma
MCF7 breast = system: MCF7 breast
MDA-MB-435 melanoma = system: MDA-MB-435 melanoma
MDA-MB-468 breast = system: MDA-MB-468 breast
MOLT-4 leukemia = system: MOLT-4 leukemia
NCI-H226 lung = system: NCI-H226 lung
NCI-H23 lung = system: NCI-H23 lung
NCI-H322M lung = system: NCI-H322M lung
NCI-H460 NSCLC = system: NCI-H460 NSCLC
NCI-H522 lung = system: NCI-H522 lung
NCI/ADR-RES ovarian = system: NCI/ADR-RES ovarian
OVCAR-3 ovarian = system: OVCAR-3 ovarian
OVCAR-4 ovarian = system: OVCAR-4 ovarian
OVCAR-8 ovarian = system: OVCAR-8 ovarian
PC-3 prostate = system: PC-3 prostate
RPMI-8226 leukemia = system: RPMI-8226 leukemia
RXF 393 renal = system: RXF 393 renal
SF-268 CNS = system: SF-268 CNS
SF-295 CNS = system: SF-295 CNS
SF-539 CNS = system: SF-539 CNS
SK-MEL-2 melanoma = system: SK-MEL-2 melanoma
SK-MEL-28 melanoma = system: SK-MEL-28 melanoma
SK-MEL-5 melanoma = system: SK-MEL-5 melanoma
SK-OV-3 ovarian = system: SK-OV-3 ovarian
SN12C renal = system: SN12C renal
SNB-19 CNS = system: SNB-19 CNS
SNB-75 CNS = system: SNB-75 CNS
SW-620 colon = system: SW-620 colon
TK-10 renal = system: TK-10 renal
U251 glioblastoma = system: U251 glioblastoma
UACC-257 melanoma = system: UACC-257 melanoma
UACC-62 melanoma = system: UACC-62 melanoma

## CN(C)CCN(C)CC(C)(C)C(=O)/C=C/c1ccc(Cl)c(Cl)c1
786-0 renal
  GI50: 1460 nM
  TGI: 2790 nM
A498 renal
  GI50: 1450 nM
  TGI: 2770 nM
A549 NSCLC
  GI50: 1720 nM
  TGI: 3130 nM
ACHN renal
  GI50: 1570 nM
  TGI: 2940 nM
BT-549 breast
  GI50: 1680 nM
  TGI: 3060 nM
CAKI-1 renal
  GI50: 1080 nM
  TGI: 2290 nM
CCRF-CEM leukemia
  GI50: 216 nM
  TGI: 479 nM
COLO 205 colon
  GI50: 1600 nM
  TGI: 2980 nM
DU-145 prostate
  GI50: 1600 nM
  TGI: 3000 nM
EKVX NSCLC
  GI50: 1650 nM
  TGI: 3080 nM
HCC-2998 colon
  GI50: 1500 nM
  TGI: 2840 nM
HCT-116 colon
  GI50: 1270 nM
  TGI: 2590 nM
HCT-15 colon
  GI50: 1230 nM
  TGI: 2530 nM
HL-60(TB) leukemia
  GI50: 161 nM
  TGI: 309 nM
HOP-62 NSCLC
  GI50: 1720 nM
  TGI: 3100 nM
HOP-92 NSCLC
  GI50: 1090 nM
  TGI: 2290 nM
HS 578T breast
  GI50: 2000 nM
  TGI: 3440 nM
HT29 colon
  GI50: 1440 nM
  TGI: 2990 nM
IGROV1 ovarian
  GI50: 1480 nM
  TGI: 2810 nM
K-562 leukemia
  GI50: 1820 nM
  TGI: 3250 nM
KM12 colon
  GI50: 810 nM
  TGI: 2060 nM
LOX IMVI melanoma
  GI50: 1640 nM
  TGI: 3020 nM
M14 melanoma
  GI50: 1690 nM
  TGI: 3080 nM
MALME-3M melanoma
  GI50: 2050 nM
  TGI: 3490 nM
MCF7 breast
  GI50: 796 nM
  TGI: 2050 nM
MDA-MB-435 melanoma
  GI50: 1360 nM
  TGI: 2650 nM
MDA-MB-468 breast
  GI50: 510 nM
  TGI: 902 nM
MOLT-4 leukemia
  GI50: 215 nM
  TGI: 459 nM
NCI-H226 lung
  GI50: 1470 nM
  TGI: 2790 nM
NCI-H23 lung
  GI50: 1470 nM
  TGI: 2840 nM
NCI-H322M lung
  GI50: 1310 nM
  TGI: 2600 nM
NCI-H460 NSCLC
  GI50: 1410 nM
  TGI: 2780 nM
NCI-H522 lung
  GI50: 1330 nM
  TGI: 2620 nM
NCI/ADR-RES ovarian
  GI50: 1570 nM
  TGI: 2920 nM
OVCAR-3 ovarian
  GI50: 1350 nM
  TGI: 2640 nM
OVCAR-4 ovarian
  GI50: 1510 nM
  TGI: 2850 nM
OVCAR-8 ovarian
  GI50: 1300 nM
  TGI: 2590 nM
PC-3 prostate
  GI50: 1510 nM
  TGI: 2860 nM
RPMI-8226 leukemia
  GI50: 319 nM
  TGI: 667 nM
RXF 393 renal
  GI50: 1080 nM
  TGI: 2270 nM
SF-268 CNS
  GI50: 1930 nM
  TGI: 3350 nM
SF-295 CNS
  GI50: 1560 nM
  TGI: 2940 nM
SF-539 CNS
  GI50: 1340 nM
  TGI: 2630 nM
SK-MEL-2 melanoma
  GI50: 292 nM
  TGI: 644 nM
SK-MEL-28 melanoma
  GI50: 1890 nM
  TGI: 3310 nM
SK-MEL-5 melanoma
  GI50: 1190 nM
  TGI: 2430 nM
SK-OV-3 ovarian
  GI50: 1280 nM
  TGI: 2550 nM
SN12C renal
  GI50: 1320 nM
  TGI: 2600 nM
SNB-19 CNS
  GI50: 1750 nM
  TGI: 3170 nM
SNB-75 CNS
  GI50: 2020 nM
  TGI: 3450 nM
SW-620 colon
  GI50: 1340 nM
  TGI: 2650 nM
TK-10 renal
  GI50: 1440 nM
  TGI: 2750 nM
U251 glioblastoma
  GI50: 1520 nM
  TGI: 2870 nM
UACC-257 melanoma
  GI50: 1450 nM
  TGI: 2770 nM
UACC-62 melanoma
  GI50: 1410 nM
  TGI: 2720 nM
